Laboratory results as given in ChEMBL document CHEMBL1151514, “Imetit and N-methyl derivatives. The transition from potent agonist to antagonist at histamine H3 receptors.1” (Bioorg Med Chem Lett, 1992).

Legend:
Histamine H3 receptor [1] = biological target: T1, Histamine H3 receptor (Rattus norvegicus, UniProt Q9QYN8); test: The compound was evaluated for antagonistic effect on release of [3H]histamine from rat brain cortical slices with L-[3H]histidine at 0.3 uM; format: functional, tissue-based
T1 sequence (Q9QYN8 whole entry): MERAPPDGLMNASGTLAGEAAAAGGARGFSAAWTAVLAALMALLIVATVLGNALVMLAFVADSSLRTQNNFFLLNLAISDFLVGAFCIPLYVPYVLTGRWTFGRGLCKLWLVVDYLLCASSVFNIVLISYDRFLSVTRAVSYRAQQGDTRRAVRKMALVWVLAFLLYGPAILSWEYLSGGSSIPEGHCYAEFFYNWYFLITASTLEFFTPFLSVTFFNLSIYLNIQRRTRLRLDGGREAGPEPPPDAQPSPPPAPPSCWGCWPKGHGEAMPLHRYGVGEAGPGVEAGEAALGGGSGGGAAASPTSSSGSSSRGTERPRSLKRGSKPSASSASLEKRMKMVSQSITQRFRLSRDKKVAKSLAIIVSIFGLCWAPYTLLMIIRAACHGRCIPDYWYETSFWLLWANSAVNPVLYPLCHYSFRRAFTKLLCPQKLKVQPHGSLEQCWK

Histamine H3 receptor [2] = biological target: T1, Histamine H3 receptor; test: The compound was evaluated for agonistic effect on release of [3H]histamine from rat brain cortical slices with L-[3H]histidine at 0.3 uM; format: functional, tissue-based
Mus musculus = test: Compound was tested for in vivo in mice which produced a decrease in the brain level of N-tele-methylhistamine when administered orally; format: functional; conditions: po
Rattus norvegicus = species: Rattus norvegicus; test: Concentrations required for half-maximal inhibition of tritiated amine release from rat cortical slices; format: functional
Histamine H3 receptor [3] = biological target: T1, Histamine H3 receptor; test: Compound was evaluated for antagonistic effect on release of [3H]histamine from rat brain cortical slices with L-[3H]histidine at 0.3 uM; format: functional, tissue-based

Ki (Histamine H3 receptor [1]) [nM]	Structure (SMILES)	ED50 (Mus musculus) [mg/kg]	other results
260	c1nc(CCSC2=NCCN2)c[nH]1		
500	CN(C)C(=N)SCCc1c[nH]cn1		
	Br.CNC(=N)SCCc1c[nH]cn1	25	EC50 (Histamine H3 receptor [2]): 15 nM
	Br.N=C(N)SCCc1c[nH]cn1 [IMETIT DIHYDROBROMIDE]	~1	
51	C/N=C(\NC)SCCc1c[nH]cn1		
	C/N=C(/SCCc1c[nH]cn1)N(C)C		EC50 (Rattus norvegicus): 1 nM; Ki (Histamine H3 receptor [3]): ≥ 500 nM
